Source: US20060069132A1, “Azolecarboxamide herbicides” (priority 2004, published 2006)

What was measured:
lambsquarters = experiment: Test C pre-/postemergence herbicide test; type: in vivo, Chenopodium album; settings: preemergence; for Plant response rating (0 = no effect, 100 = complete control), Lambsquarters: 125 g ai/ha
Outline: (§1)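 Seeds were planted and sprayed preemergence with test chemicals in a non-phytotoxic solvent mixture containing surfactant; postemergence treatments went onto plants 2 to 18 cm tall (1- to 4-leaf stage). After 12 to 14 days in a greenhouse, injury was rated visually against untreated controls on a 0–100 scale.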

velvetleaf = experiment: Test C pre-/postemergence herbicide test; type: in vivo, Abutilon theophrasti; settings: preemergence; for Plant response rating (0 = no effect, 100 = complete control), Velvetleaf: 125 g ai/ha
Outline: as §1

[1] = tested on: smallflower umbrella sedge; experiment: Test C flooded paddy test; type: in vivo, Cyperus difformis; settings: for Plant response rating, Sedge, Umbrella: 500 g ai/ha, visual rating after 12 to 14 days
morningglory = experiment: Test C pre-/postemergence herbicide test; type: in vivo, Ipomoea coccinea; set-up: key to Plant response rating, Morningglory: 0 = no effect, 100 = complete control; settings: preemergence; for Plant response rating (0 = no effect, 100 = complete control), Morningglory: 125 g ai/ha
Outline: as §1

johnsongrass = experiment: Test C pre-/postemergence herbicide test; type: in vivo, Sorghum halepense; settings: preemergence; for Plant response rating (0 = no effect, 100 = complete control), Johnsongrass: 125 g ai/ha
Outline: as §1

barnyardgrass = experiment: Test C flooded paddy test; type: in vivo, Echinochloa crus-galli; settings: for Plant response rating, Barnyardgrass: 500 g ai/ha, visual rating after 12 to 14 days
Outline: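 Postemergence sprays applied to plants 2 to 18 cm tall (1- to 4-leaf stage); paddy species grown to 2-leaf stage under flooding. After 12 to 14 days in greenhouse, visual rating versus untreated controls on 0–100 scale (0 no effect, 100 complete control).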

[2] = 500 g ai/ha, scale 0 to 100 (0 no effect, 100 complete control), visual, 12 to 14 days
[3] = 125 g ai/ha, scale 0 to 100 (0 no effect, 100 complete control)
[4] = 250 g ai/ha, scale of 0 to 100, 0 is no effect, 100 is complete control
[5] = scale 0 to 100 (0 no effect, 100 complete control)
[6] = 62 g ai/ha, scale 0 to 100 (0 no effect, 100 complete control)

Row | SMILES | Plant response rating, Lambsquarters (lambsquarters; 62 g ai/ha, scale 0 to 100) | Plant response rating (0 = no effect, 100 = complete control), Lambsquarters (lambsquarters) | Plant response rating, Lambsquarters (lambsquarters; 250 g ai/ha, scale 0-100) | Plant response rating, Lambsquarters (lambsquarters; [2]) | Plant response rating, Velvetleaf (velvetleaf; 62 g ai/ha, scale 0 to 100) | Plant response rating (0 = no effect, 100 = complete control), Velvetleaf (velvetleaf) | Plant response rating, Velvetleaf (velvetleaf; [2]) | Sedge, Umbrella plant response rating ([1]; 62 g ai/ha, scale 0 to 100) | Sedge, Umbrella plant response rating [1, 3] | Sedge, Umbrella plant response rating [1, 4] | Plant response rating, Sedge, Umbrella [1, 5] | Plant response rating, Morningglory (morningglory; 62 g ai/ha, scale 0 to 100) | Plant response rating (0 = no effect, 100 = complete control), Morningglory (morningglory) | Plant response rating, Morningglory (morningglory; 250 g ai/ha, scale 0-100) | Plant response rating, Morningglory (morningglory; [2]) | Plant response rating, Johnsongrass (johnsongrass; 62 g ai/ha, scale 0 to 100) | Plant response rating (0 = no effect, 100 = complete control), Johnsongrass (johnsongrass) | Plant response rating, Johnsongrass (johnsongrass; 250 g ai/ha, scale 0-100) | Plant response rating, Johnsongrass (johnsongrass; [2]) | Barnyardgrass plant response rating (barnyardgrass; [6]) | further results
1 | CCNC(=O)c1cccc(NC(=O)c2nn(C(C)(C)CC)nc2CC)c1 [Compound 376] | 100 | 100 | 100 | 100 | 0 | 5 | 50 | 80 | 85 | 85 | 85 | 0 | 0 | 5 | 5 | 60 | 80 | 100 | 100 | 45 | Barnyardgrass plant response rating (barnyardgrass; [3]): 65; Barnyardgrass plant response rating (barnyardgrass; [4]): 70; Plant response rating, Barnyardgrass (barnyardgrass; [5]): 75
2 | CCc1nn(C(C)(C)CC)nc1C(=O)Nc1cccc(C(=O)N(C)C)c1 [Compound 372] | 100 | 100 | 100 | 100 | 50 | 100 | 100 | 80 | 85 | 85 | 85 | 0 | 5 | 40 | 80 | 80 | 80 | 90 | 90 | 65 | Plant response rating, Velvetleaf (velvetleaf; 250 g ai/ha, scale 0-100): 100; Barnyardgrass plant response rating (barnyardgrass; [3]): 70; Barnyardgrass plant response rating (barnyardgrass; [4]): 75; Plant response rating, Barnyardgrass (barnyardgrass; [5]): 80
3 | CCC1=NN(C(C)(C)C)CC1C(=O)Nc1cc(C(=O)N2CCCC2)ccc1F (racemic) [Compound 341] | 100 | 100 | 100 | 100 | 30 | 60 | 100 | 20 | 50 | 60 | 60 | 0 | 5 | 5 | 50 | 15 | 85 | 100 | 100 | 30 | Plant response rating, Velvetleaf (velvetleaf; 250 g ai/ha, scale 0-100): 100; Barnyardgrass plant response rating (barnyardgrass; [3]): 30; Barnyardgrass plant response rating (barnyardgrass; [4]): 50; Plant response rating, Barnyardgrass (barnyardgrass; [5]): 60
